Measured values taken from ChEMBL document CHEMBL3272086, “Antimalarials. 9. Methylthio- and methylsulfonyl-substituted 9-phenanthrenemethanols” (1976).
Active and inactive are the calls of the source. The calls are words filed in the database; no cut-off is given here.

What was measured:
[1] = system: Plasmodium berghei; assay: Antimalarial activity against Plasmodium berghei infected in mouse assessed as change in mean survival time at 20 mg/kg, sc administered 72 hrs post infection as single dose (reference value: 6.2 days); format: functional; conditions: route subcutaneous
[2] = system: Plasmodium berghei; assay: Antimalarial activity against Plasmodium berghei infected in mouse assessed as change in mean survival time at 40 mg/kg, sc administered 72 hrs post infection as single dose (reference value: 6.2 days); format: functional; conditions: route subcutaneous
[3] = system: Plasmodium berghei; assay: Antimalarial activity against Plasmodium berghei infected in mouse assessed as cure from disease at 160 mg/kg, sc administered 72 hrs post infection as single dose measured post 60 days; format: functional, organism-based; set-up: dose 160 mg/kg
[4] = system: Plasmodium berghei; assay: Antimalarial activity against Plasmodium berghei infected in mouse assessed as change in mean survival time at 80 mg/kg, sc administered 72 hrs post infection as single dose (reference value: 6.2 days); format: functional; conditions: route subcutaneous
[5] = system: Plasmodium berghei; assay: Antimalarial activity against Plasmodium berghei infected in mouse assessed as cure from disease at 320 mg/kg, sc administered 72 hrs post infection as single dose measured post 60 days; format: functional, organism-based; set-up: dose 320 mg/kg
[6] = system: Plasmodium berghei; assay: Antimalarial activity against Plasmodium berghei infected in mouse assessed as change in mean survival time at 320 mg/kg, sc administered 72 hrs post infection as single dose (reference value: 6.2 days); format: functional; conditions: route subcutaneous
[7] = system: Plasmodium berghei; assay: Antimalarial activity against Plasmodium berghei infected in mouse assessed as change in mean survival time at 160 mg/kg, sc administered 72 hrs post infection as single dose (reference value: 6.2 days); format: functional; conditions: route subcutaneous

## CCCCN(CCCC)CC(O)c1cc2cc(SC)ccc2c2c(Cl)c(Cl)ccc12.Cl (stereo not given)
[1]
  MST: 9.3 days
[2]
  MST: 10.7 days

## CCCCN(CCCC)CC(O)c1cc2cc(SC)ccc2c2cc(Cl)c(Cl)cc12.Cl (stereo not given)
[1]
  MST: 9.1 days
[3]
  Activity: Active
[2]
  MST: 10.3 days

## CCCCN(CCCC)CC(O)c1cc2cc(Br)ccc2c2cc(SC)ccc12.Cl (stereo not given)
[4]
  MST: 9.5 days
[1]
  MST: 2.8 days
[2]
  MST: 8.6 days

## CCCCN(CCCC)CC(O)c1cc2cc(S(C)(=O)=O)ccc2c2c(Cl)c(Cl)ccc12.Cl (stereo not given)
[4]
  MST: 14.9 days
[1]
  MST: 4.7 days
[2]
  MST: 7.7 days
[5]
  Activity: Active

## CCCCN(CCCC)CC(O)c1cc2cc(Br)ccc2c2cc(S(C)(=O)=O)ccc12.Cl (stereo not given)
[4]
  MST: 10.8 days
[1]
  MST: 0.6 days
[2]
  MST: 1.2 days

## CCCCN(CCCC)CC(O)c1cc2cc(S(C)(=O)=O)ccc2c2cc(Cl)c(Cl)cc12.Cl (stereo not given)
[1]
  MST: 4.9 days
[2]
  MST: 8.5 days
[5]
  Activity: Active

## CCCCN(CCCC)CC(O)c1cc2cc(Cl)cc(Cl)c2c2cc(SC)ccc12.Cl (stereo not given)
[1]
  MST: 10.5 days
[3]
  Activity: Active
[5]
  Activity: Active

## CCCCN(CCCC)CC(O)c1cc2cc(S(C)(=O)=O)ccc2c2cc(S(C)(=O)=O)ccc12.Cl (stereo not given)
[4]
  MST: 0.3 days
[2]
  MST: 0.1 days
[6]
  MST: 0.3 days
[7]
  MST: 0.3 days

## CCCCN(CCCC)CC(O)c1cc2cc(SC)ccc2c2cc(SC)ccc12.Cl (stereo not given)
[4]
  MST: 11.5 days
[1]
  MST: 0.7 days
[2]
  MST: 5.9 days
[5]
  Activity: Active
[7]
  MST: 16.1 days
